Test system: RBCs
Test: Cell scan of RBC membrane permeability (Pk0) after contacting whole blood from a healthy volunteer with an agent
Assay type: cell-based, human
Settings: for Induction of water permeability resistance (decreased RBC membrane permeability to water): agents at concentrations consistent with in vivo concentration; for Pk0 (mOsm/kg): whole blood in ACD, healthy volunteer, measured after exposure (method: five minutes), lactose 1:20 (v/v) saturated lactose solution, amphotericin B 0.5 μg/mL
Description: A sample of whole blood from a healthy volunteer was drawn into ACD anticoagulant. The unwashed sample was divided into aliquots and was analyzed using the Prior Shine Technology and/or the Provided Cell Scanning Technologies. The following outputs were obtained from the sample:
Using the technologies described herein, a cell-by-cell analysis was converted into a plot of percent change of cell volume vs. osmolality (“Cell Scan Plot”) by converting the individual peak voltage into a cell volume, then calculating a mean volume for an aliquot of cells, and plotting the means to generate the Cell Scan Plot. The percentage change of cell volume at each osmolality is calculated and compared to the mean cell volume of an isotonic cell (e.g., FIG. 1b). On such a plot, Pk0 (see 101) is the osmotic pressure at which the net water flow is zero (i.e., when a cell achieved its maximum volume, i.e., when it is a perfect sphere). As described herein, in some embodiments, Pk0 can be used as an indicator of an individual's health status.
A sample of whole blood from a healthy volunteer was drawn into ACD anticoagulant. Blood samples were divided into aliquots, and each sample was contacted with an agent at concentrations consistent with the agent's in vivo concentration. Agents that were tested included alcohols, alpha fetoproteins, amphotericin B, bovine albumen, carcinoembryonic antigen (CEA), concanavalin A (Con A), fetuin, fibronectin, 5-HT, kallikrein, ovomucoid, prostacyclin, prostaglandin, semen, transferrin, and several sugars, including N-acetyl-D-glucosamine, N-acetyl neurominic acid, 2-deoxy-D-ribose, fructose, D- and L-arabinose, beta-D-galactopyranoside, erythrose, D- and L-fucose, D- and L-glucose, D-galactose, lactose, maltose, iso-maltose, D-mannose, mannitol, L-rhamnose, ribose, sucrose, and D-xylose. Five minutes after exposure to an agent, the blood sample was evaluated for cell membrane permeability and Pk0 was measured. […] Lactose ([…]) lowered Pk0 to 110 mOsm/kg.
A sample of whole blood from a healthy volunteer was drawn into ACD anticoagulant. The sample was then treated with 5-HT (900 ng/mL), and cell membrane permeability was evaluated 5 minutes after treatment.

Compound | Induction of water permeability resistance (decreased RBC membrane permeability to water) | Pk0 (mOsm/kg) (5-HT 900 ng/mL) | Pk0 lowered to (after 10 minutes) [mOsm/kg] | Pk0 after treatment with 5-HT (5-HT 900 ng/mL, 5 minutes after treatment, normal Pk0 before approx. 140 mOsm/kg (FIG. 8)) | Pk0 shift after contacting with 5-HT (FIG. 8, RBCs from normal healthy individual, before vs after 5-HT)
C[C@@H]1[C@H](O)[C@@H](C)/C=C/C=C/C=C/C=C/C=C/C=C/C=C/[C@H](O[C@@H]2O[C@H](C)[C@@H](O)[C@H](N)[C@@H]2O)C[C@@H]2O[C@](O)(C[C@@H](O)C[C@@H](O)[C@H](O)CC[C@@H](O)C[C@@H](O)CC(=O)O[C@H]1C)C[C@H](O)[C@H]2C(=O)O [Amphotericin B] | identified as RBC membrane permeability decreasing agents | 85 |  |  | 
OC[C@H]1O[C@@H](O[C@H]2[C@H](O)[C@@H](O)C(O)O[C@@H]2CO)[C@H](O)[C@@H](O)[C@H]1O (stereo partly drawn) [Lactose] | identified as RBC membrane permeability decreasing agents | 110 | 110 |  | 
NCCc1c[nH]c2ccc(O)cc12 [Agent 5-HT, 5-hydroxytryptamine] | effective within minutes | 110 |  | approx. 110 mOsm/kg | approx. 30 mOsm/kg
